Reference: article PMC5540273, “Progress towards a public chemogenomic set for protein kinases and a call for contributions” (PLoS ONE, 2017)

How the values were obtained:
Assay in all cases: KINOMEscan competition binding
[1] = target: T1, BMPR2 (Homo sapiens, UniProt Q13873); conditions: read-out: %Inh BMPR2
T1 sequence (Q13873 27-1038): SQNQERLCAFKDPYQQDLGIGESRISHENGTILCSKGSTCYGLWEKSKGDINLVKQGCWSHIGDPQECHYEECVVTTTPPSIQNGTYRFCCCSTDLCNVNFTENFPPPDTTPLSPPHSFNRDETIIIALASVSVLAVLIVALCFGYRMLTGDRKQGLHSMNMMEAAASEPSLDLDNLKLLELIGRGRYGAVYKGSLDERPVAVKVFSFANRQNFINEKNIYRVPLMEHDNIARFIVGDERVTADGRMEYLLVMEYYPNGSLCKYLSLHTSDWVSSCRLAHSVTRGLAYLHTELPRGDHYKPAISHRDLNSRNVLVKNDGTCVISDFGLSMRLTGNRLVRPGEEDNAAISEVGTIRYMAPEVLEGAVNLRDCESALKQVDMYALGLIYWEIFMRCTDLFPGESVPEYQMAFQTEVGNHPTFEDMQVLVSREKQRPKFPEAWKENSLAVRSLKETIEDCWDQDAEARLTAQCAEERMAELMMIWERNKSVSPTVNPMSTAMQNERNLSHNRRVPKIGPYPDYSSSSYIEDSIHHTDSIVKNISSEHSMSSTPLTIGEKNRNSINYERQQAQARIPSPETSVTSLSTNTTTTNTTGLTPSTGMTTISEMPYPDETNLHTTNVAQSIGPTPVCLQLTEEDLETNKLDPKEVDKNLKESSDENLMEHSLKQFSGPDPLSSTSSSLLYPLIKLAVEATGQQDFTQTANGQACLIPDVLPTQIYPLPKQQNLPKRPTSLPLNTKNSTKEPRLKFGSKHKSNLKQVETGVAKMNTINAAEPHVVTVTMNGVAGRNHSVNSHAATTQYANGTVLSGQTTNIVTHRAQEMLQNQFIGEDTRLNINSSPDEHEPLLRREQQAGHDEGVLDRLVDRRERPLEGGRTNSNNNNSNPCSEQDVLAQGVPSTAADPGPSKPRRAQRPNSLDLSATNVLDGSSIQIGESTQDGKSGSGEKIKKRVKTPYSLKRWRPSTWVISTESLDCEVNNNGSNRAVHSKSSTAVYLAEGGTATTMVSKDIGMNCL

[2] = target: FLT1 (Homo sapiens, UniProt P17948); conditions: read-out: %Inh FLT1
Chain of FLT1 (P17948 27-1338): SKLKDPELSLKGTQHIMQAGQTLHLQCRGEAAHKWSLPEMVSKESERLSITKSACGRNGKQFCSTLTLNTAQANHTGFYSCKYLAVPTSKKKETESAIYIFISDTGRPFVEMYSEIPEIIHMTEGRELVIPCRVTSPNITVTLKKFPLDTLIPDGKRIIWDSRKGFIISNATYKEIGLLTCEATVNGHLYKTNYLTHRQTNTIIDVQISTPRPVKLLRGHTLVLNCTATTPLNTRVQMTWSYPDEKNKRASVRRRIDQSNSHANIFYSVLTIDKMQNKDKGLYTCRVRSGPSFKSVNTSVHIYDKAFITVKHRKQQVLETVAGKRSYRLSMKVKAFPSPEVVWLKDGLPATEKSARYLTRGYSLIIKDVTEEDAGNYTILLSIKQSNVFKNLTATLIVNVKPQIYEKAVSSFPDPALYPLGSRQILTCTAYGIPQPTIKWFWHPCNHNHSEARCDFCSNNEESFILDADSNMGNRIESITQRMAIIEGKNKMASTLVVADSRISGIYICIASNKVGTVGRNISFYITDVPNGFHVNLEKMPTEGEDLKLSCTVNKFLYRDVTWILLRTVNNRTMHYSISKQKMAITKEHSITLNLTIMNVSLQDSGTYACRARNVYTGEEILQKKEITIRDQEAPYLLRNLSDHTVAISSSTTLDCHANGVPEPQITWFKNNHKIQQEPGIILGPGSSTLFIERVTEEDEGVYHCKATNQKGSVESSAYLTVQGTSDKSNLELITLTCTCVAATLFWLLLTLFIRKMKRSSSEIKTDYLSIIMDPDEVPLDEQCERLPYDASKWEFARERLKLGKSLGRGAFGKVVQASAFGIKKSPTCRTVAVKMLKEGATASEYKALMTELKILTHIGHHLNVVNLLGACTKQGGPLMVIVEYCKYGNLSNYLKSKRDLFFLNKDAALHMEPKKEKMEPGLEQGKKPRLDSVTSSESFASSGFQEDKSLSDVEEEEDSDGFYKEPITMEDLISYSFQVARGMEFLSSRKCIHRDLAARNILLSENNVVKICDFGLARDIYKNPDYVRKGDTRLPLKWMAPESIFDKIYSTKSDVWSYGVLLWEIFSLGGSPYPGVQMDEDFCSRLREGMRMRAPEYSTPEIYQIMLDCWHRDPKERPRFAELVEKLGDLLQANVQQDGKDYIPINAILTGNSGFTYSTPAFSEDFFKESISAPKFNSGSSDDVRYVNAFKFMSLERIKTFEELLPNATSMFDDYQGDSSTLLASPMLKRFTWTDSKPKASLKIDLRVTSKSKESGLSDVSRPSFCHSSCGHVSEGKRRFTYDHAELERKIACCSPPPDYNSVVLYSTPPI

[3] = target: T2, EPHA8 (Homo sapiens, UniProt P29322); conditions: read-out: %Inh EPHA8
T2 sequence (P29322 28-1005): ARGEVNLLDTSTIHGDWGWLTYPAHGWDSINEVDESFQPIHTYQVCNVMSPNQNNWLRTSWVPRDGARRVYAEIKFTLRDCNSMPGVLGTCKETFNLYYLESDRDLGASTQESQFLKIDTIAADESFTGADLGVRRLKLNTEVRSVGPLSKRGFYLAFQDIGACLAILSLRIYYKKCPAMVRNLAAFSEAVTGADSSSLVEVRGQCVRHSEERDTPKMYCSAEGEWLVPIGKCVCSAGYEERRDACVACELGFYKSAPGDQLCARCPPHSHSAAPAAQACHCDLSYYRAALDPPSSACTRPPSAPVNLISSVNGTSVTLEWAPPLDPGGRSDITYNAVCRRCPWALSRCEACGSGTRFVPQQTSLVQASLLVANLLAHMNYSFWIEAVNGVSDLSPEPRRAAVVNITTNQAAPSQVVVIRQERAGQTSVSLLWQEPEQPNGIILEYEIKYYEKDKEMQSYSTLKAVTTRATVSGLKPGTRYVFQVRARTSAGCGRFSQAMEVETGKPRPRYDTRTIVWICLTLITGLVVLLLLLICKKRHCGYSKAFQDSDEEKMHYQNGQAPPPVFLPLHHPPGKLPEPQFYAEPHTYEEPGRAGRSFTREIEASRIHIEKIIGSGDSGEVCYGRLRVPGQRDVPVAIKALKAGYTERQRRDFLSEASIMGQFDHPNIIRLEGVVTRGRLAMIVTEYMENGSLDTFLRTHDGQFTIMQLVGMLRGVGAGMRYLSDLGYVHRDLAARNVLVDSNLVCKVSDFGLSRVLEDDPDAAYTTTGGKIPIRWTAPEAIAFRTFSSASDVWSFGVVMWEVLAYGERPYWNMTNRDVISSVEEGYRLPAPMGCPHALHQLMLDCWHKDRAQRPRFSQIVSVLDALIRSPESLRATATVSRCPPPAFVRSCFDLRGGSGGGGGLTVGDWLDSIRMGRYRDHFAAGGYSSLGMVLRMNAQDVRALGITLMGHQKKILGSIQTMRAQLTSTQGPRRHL

SMILES | inhibition at 1 µM [1] [%] | inhibition at 1 µM [2] [%] | inhibition at 1 µM [3] [%]
COc1cccc(OC)c1C(=O)Nc1cccc(-c2nn3ccccc3c2-c2ccnc(Nc3cccc(F)c3)n2)c1 [UNC10225310A] | 0 | 32 | 17
Cc1ccc(NC(=O)Nc2cccc(C(F)(F)F)c2)cc1 [UNC10225187A] | 1 | 23 | 3
O=c1cc(N2CCOCC2)nc2n(Cc3cccc(Cl)c3Cl)c(C3CC3)nn12 [UNC10225469A] | 13 | 6 | 9
CS(=O)(=O)Cc1ccc(Nc2nccc(-c3c(-c4cccc(NC(=O)C5CCCCC5)c4)nn4ncccc34)n2)cc1 [UNC10225159A] | 24 | 63 | 15
Cn1cc(-c2cnc(N)c3c(-c4ccc5c(c4)CCN5C(=O)Cc4ccccc4)csc23)cn1 [UNC10225012A] | 6 | 79 | 8
